Measurements from PubChem BioAssay (NCI).
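Tested at 5 concentrations; 48 h exposure; 96-well plates; endpoints linearly interpolated, else capped at highest concentration. GI50 marks 50% less growth. Definition used: TGI = concentration required for complete inhibition of growth.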

Tests used:
Test in all cases: NCI-60 cell line screen, 48 h
786-0 renal = system: 786-0 renal
A498 renal = system: A498 renal
ACHN renal = system: ACHN renal
BT-549 breast = system: BT-549 breast
CAKI-1 renal = system: CAKI-1 renal
COLO 205 colon = system: COLO 205 colon
DU-145 prostate = system: DU-145 prostate
EKVX NSCLC = system: EKVX NSCLC
HCT-116 colon = system: HCT-116 colon
HOP-62 NSCLC = system: HOP-62 NSCLC
HOP-92 NSCLC = system: HOP-92 NSCLC
HS 578T breast = system: HS 578T breast
IGROV1 ovarian = system: IGROV1 ovarian
LOX IMVI melanoma = system: LOX IMVI melanoma
M14 melanoma = system: M14 melanoma
MDA-MB-435 = system: MDA-MB-435
NCI-H226 lung = system: NCI-H226 lung
NCI-H460 lung = system: NCI-H460 lung
NCI-H522 lung = system: NCI-H522 lung
NCI/ADR-RES ovarian = system: NCI/ADR-RES ovarian
OVCAR-4 ovarian = system: OVCAR-4 ovarian
OVCAR-5 ovarian = system: OVCAR-5 ovarian
OVCAR-8 ovarian = system: OVCAR-8 ovarian
PC-3 prostate = system: PC-3 prostate
RPMI-8226 leukemia = system: RPMI-8226 leukemia
RXF 393 renal = system: RXF 393 renal
SF-268 CNS = system: SF-268 CNS
SF-295 CNS = system: SF-295 CNS
SF-539 CNS = system: SF-539 CNS
SK-MEL-2 melanoma = system: SK-MEL-2 melanoma
SK-MEL-28 melanoma = system: SK-MEL-28 melanoma
SK-MEL-5 melanoma = system: SK-MEL-5 melanoma
SK-OV-3 ovarian = system: SK-OV-3 ovarian
SN12C renal = system: SN12C renal
SNB-19 CNS = system: SNB-19 CNS
SNB-75 CNS = system: SNB-75 CNS
SW-620 colon = system: SW-620 colon
T-47D breast = system: T-47D breast
TK-10 renal = system: TK-10 renal
UACC-257 melanoma = system: UACC-257 melanoma
UACC-62 melanoma = system: UACC-62 melanoma
UO-31 renal = system: UO-31 renal

OC1CCN(CCCOc2c3ccccc3nc3c2oc2ccc(Cl)cc23)CC1
GI50 (786-0 renal): 1080 nM | TGI (786-0 renal): 3610 nM | GI50 (A498 renal): 2530 nM | TGI (A498 renal): 7590 nM | GI50 (ACHN renal): 534 nM | TGI (ACHN renal): 10300 nM | GI50 (BT-549 breast): 3040 nM | TGI (BT-549 breast): 10100 nM | GI50 (CAKI-1 renal): 710 nM | TGI (CAKI-1 renal): 2290 nM | GI50 (COLO 205 colon): 755 nM | TGI (COLO 205 colon): 2210 nM | GI50 (DU-145 prostate): 1060 nM | TGI (DU-145 prostate): 3570 nM | GI50 (EKVX NSCLC): 2410 nM | TGI (EKVX NSCLC): 13200 nM | GI50 (HCT-116 colon): 414 nM | TGI (HCT-116 colon): 2360 nM | GI50 (HOP-62 NSCLC): 1740 nM | TGI (HOP-62 NSCLC): 7570 nM | GI50 (HOP-92 NSCLC): 713 nM | TGI (HOP-92 NSCLC): 5040 nM | GI50 (HS 578T breast): 2280 nM | TGI (HS 578T breast): 13400 nM | GI50 (IGROV1 ovarian): 1250 nM | TGI (IGROV1 ovarian): 6280 nM | GI50 (LOX IMVI melanoma): 372 nM | TGI (LOX IMVI melanoma): 1520 nM | GI50 (M14 melanoma): 1450 nM | TGI (M14 melanoma): 3690 nM | GI50 (MDA-MB-435): 1230 nM | TGI (MDA-MB-435): 2560 nM | GI50 (NCI-H226 lung): 1720 nM | TGI (NCI-H226 lung): 3750 nM | GI50 (NCI-H460 lung): 440 nM | TGI (NCI-H460 lung): 1850 nM | GI50 (NCI-H522 lung): 1110 nM | TGI (NCI-H522 lung): 2730 nM | GI50 (NCI/ADR-RES ovarian): 579 nM | TGI (NCI/ADR-RES ovarian): 4910 nM | GI50 (OVCAR-4 ovarian): 1230 nM | TGI (OVCAR-4 ovarian): 3660 nM | GI50 (OVCAR-5 ovarian): 1710 nM | TGI (OVCAR-5 ovarian): 6040 nM | GI50 (OVCAR-8 ovarian): 991 nM | TGI (OVCAR-8 ovarian): 11900 nM | GI50 (PC-3 prostate): 1280 nM | TGI (PC-3 prostate): 4040 nM | GI50 (RPMI-8226 leukemia): 1330 nM | TGI (RPMI-8226 leukemia): 4030 nM | GI50 (RXF 393 renal): 1020 nM | TGI (RXF 393 renal): 2310 nM | GI50 (SF-268 CNS): 1080 nM | TGI (SF-268 CNS): 10000 nM | GI50 (SF-295 CNS): 1490 nM | TGI (SF-295 CNS): 6450 nM | GI50 (SF-539 CNS): 1070 nM | TGI (SF-539 CNS): 2300 nM | GI50 (SK-MEL-2 melanoma): 2450 nM | TGI (SK-MEL-2 melanoma): 5990 nM | GI50 (SK-MEL-28 melanoma): 1640 nM | TGI (SK-MEL-28 melanoma): 3100 nM | GI50 (SK-MEL-5 melanoma): 1780 nM | TGI (SK-MEL-5 melanoma): 3250 nM | GI50 (SK-OV-3 ovarian): 2420 nM | TGI (SK-OV-3 ovarian): 7070 nM | GI50 (SN12C renal): 883 nM | TGI (SN12C renal): 17200 nM | GI50 (SNB-19 CNS): 1400 nM | TGI (SNB-19 CNS): 18200 nM | GI50 (SNB-75 CNS): 1970 nM | TGI (SNB-75 CNS): 10900 nM | GI50 (SW-620 colon): 444 nM | TGI (SW-620 colon): 2090 nM | GI50 (T-47D breast): 3540 nM | TGI (T-47D breast): 20700 nM | GI50 (TK-10 renal): 2750 nM | TGI (TK-10 renal): 18300 nM | GI50 (UACC-257 melanoma): 1750 nM | TGI (UACC-257 melanoma): 3530 nM | GI50 (UACC-62 melanoma): 1990 nM | TGI (UACC-62 melanoma): 4820 nM | GI50 (UO-31 renal): 1230 nM | TGI (UO-31 renal): 3290 nM
